Values after ≈ are worked out from the molar mass of the structure shown. Like-named read-outs stand apart in the source and are kept apart here.
Tests used:
[1] = test system: Staphylococcus aureus X1.1; test: MIC, standard agar-dilution assay, Staphylococcus aureus X1.1; format: cell-based
[2] = test system: Staphylococcus aureus V41; test: MIC, standard agar-dilution assay, Staphylococcus aureus V41; format: cell-based
[3] = test system: Staphylococcus aureus X400; test: MIC, standard agar-dilution assay, Staphylococcus aureus X400; format: cell-based
[4] = test system: Staphylococcus aureus S13E; test: MIC, standard agar-dilution assay, Staphylococcus aureus S13E; format: cell-based
[5] = test system: Staphylococcus epidermidis EPI1; test: MIC, standard agar-dilution assay, Staphylococcus epidermidis EPI1; format: cell-based
[6] = test system: Staphylococcus epidermidis EPI2; test: MIC, standard agar-dilution assay, Staphylococcus epidermidis EPI2; format: cell-based
[7] = test system: Streptococcus pyogenes C203; test: MIC, standard agar-dilution assay, Streptococcus pyogenes C203; format: cell-based
[8] = test system: Streptococcus pneumoniae Park I; test: microbe, parasite or virus in culture; format: cell-based
[9] = test system: Streptococcus Group D X66; test: MIC, standard agar-dilution assay, Streptococcus Group D X66; format: cell-based
Streptococcus Group 9960 = test: MIC, standard agar-dilution assay, Streptococcus Group 9960; format: cell-based; conditions: Streptococcus Group 9960, agar dilution
[10] = test system: Haemophilus influenzae Holt; test: MIC, standard agar-dilution assay, Haemophilus influenzae Holt; format: cell-based
[11] = test system: Haemophilus influenzae R252; test: MIC, standard agar-dilution assay, Haemophilus influenzae R252; format: cell-based
Staphylococcus aureus = test: MIC, broth-dilution microtiter test, Staphylococcus aureus; format: cell-based
Excerpt: (§1) The MIC's in Table X were obtained using conventional broth-dilution microtiter tests.

Streptococcus bovis 80 = test: MIC, broth-dilution microtiter test, Streptococcus bovis 80; format: cell-based
Excerpt: as §1

[12] = test system: Pasteurella multocida 17E; test: MIC, broth-dilution microtiter test, Pasteurella multocida 17E; format: cell-based
Excerpt: as §1

[13] = test system: Pasteurella multocida 60A; test: MIC, broth-dilution microtiter test, Pasteurella multocida 60A; format: cell-based; conditions: Pasteurella multocida 60A, avian isolate, broth-dilution microtiter
Excerpt: as §1

[14] = test system: Pasteurella hemolytica 22C; test: MIC, broth-dilution microtiter test, Pasteurella hemolytica 22C; format: cell-based; conditions: Pasteurella hemolytica 22C, broth-dilution microtiter
Excerpt: as §1

Mycoplasma gallisepticum = test: MIC, broth-dilution microtiter test, Mycoplasma gallisepticum; format: cell-based
Excerpt: as §1

Mycoplasma synoviae = test: MIC, broth-dilution microtiter test, Mycoplasma synoviae; format: cell-based
Excerpt: as §1

Mycoplasma hyorhinis = test: MIC, broth-dilution microtiter test, Mycoplasma hyorhinis; format: cell-based
Excerpt: as §1

Mycoplasma hyopneumoniae = test: MIC, broth-dilution microtiter test, Mycoplasma hyopneumoniae; format: cell-based
Excerpt: as §1

[15] = test system: Streptococcus pyogenes C203; test: In vivo protection of mice experimentally infected with S. pyogenes C203; conditions: Streptococcus pyogenes, mice, doses given 1 and 4 hours post-infection
Protocol: The C-20 modified derivatives of this invention have shown in vivo antimicrobial activity against experimentally-induced infections in laboratory animals. When two doses of test compound were administered to mice experimentally infected with S. pyogenes C203, the activity observed was measured as an ED50 value [effective dose in mg/kg to protect 50% of the test animals: see Warren Wick, et al., J. Bacteriol. 81, 233-235 (1961)].

Pasteurella multocida [16] = test: Oral (gavage) treatment of Pasteurella multocida-infected chicks; format: in vivo, one-day-old chicks
Protocol: (§2) Many of the C-20 modified derivatives of this invention have also shown in vivo antibacterial activity against infections induced by gram-negative bacteria. Tables XII and XIII summarize the results of tests in which illustrative compounds were evaluated against Pasteurella infection in one-day-old chicks. The compounds were administered parenterally or orally after challenge of the chicks with Pasteurella multocida (0.1 ml of a 10^-4 dilution of a twenty-hour tryptose broth culture of an avian P. multocida given subcutaneously). In these tests, unless indicated otherwise, all non-medicated infected chicks died within 24 hours of Pasteurella challenge. In the tests summarized in Table XII the compounds were administered by subcutaneous injection at a dosage of 30 mg/kg, 1 and 4 hours post-challenge of the chicks with P. multocida. In the test summarized in Table XIII the compounds were administered by gavage at 1 and 5 hours post-challenge of the chicks with P. multocida.

Pasteurella multocida [17] = test: Subcutaneous treatment of Pasteurella multocida-infected chicks; format: in vivo, one-day-old chicks; conditions: 30 mg/kg × 2, 1 and 4 hours post-challenge
Protocol: as §2

[18] = Staphylococcus epidermidis, EPI1
[19] = C203, sc, subcutaneous, read-out: ED50, Subcutaneous
[20] = C203, oral, read-out: ED50, Oral

Compound: CCC1OC(=O)CC(O)C(C)C(OC2OC(C)C(O)C(N(C)C)C2O)C(CCOc2ccc([N+](=O)[O-])cc2)CC(C)C(=O)C=CC(C)=CC1COC1OC(C)C(O)C(OC)C1OC (stereo not drawn) [Compound 34, 20-DH-20-O-(p-Nitrophenyl)desmycosin]
- MIC ([1]; Staphylococcus aureus, X1.1): 0.5 mg/L (≈ 0.559 µM)
- MIC ([2]; Staphylococcus aureus, V41): 0.5 mg/L (≈ 0.559 µM)
- MIC ([3]; Staphylococcus aureus, X400): 1 mg/L (≈ 1.12 µM)
- MIC ([4]; Staphylococcus aureus, S13E): 0.5 mg/L (≈ 0.559 µM)
- MIC [5, 18]: 0.5 mg/L (≈ 0.559 µM)
- MIC ([6]; Staphylococcus epidermidis EPI2, agar dilution, read-out: MIC): 0.12 mg/L (≈ 0.134 µM)
- MIC ([7]; Streptococcus pyogenes, C203): 1 mg/L (≈ 1.12 µM)
- MIC ([8]; Streptococcus pneumoniae): 1 mg/L (≈ 1.12 µM)
- MIC [9]: 4 mg/L (≈ 4.47 µM)
- MIC (Streptococcus Group 9960; GROUP9960, read-out: MIC): 8 mg/L (≈ 8.94 µM)
- MIC ([10]; Haemophilus influenzae): 16 mg/L (≈ 17.9 µM)
- MIC ([11]; Haemophilus influenzae, R252): 16 mg/L (≈ 17.9 µM)
- MIC (Staphylococcus aureus; broth-dilution microtiter, read-out: MIC): 0.39 mg/L (≈ 0.436 µM)
- MIC (Streptococcus bovis 80; Streptococcus equinus, 80): 1.56 mg/L (≈ 1.74 µM)
- MIC ([12]; Pasteurella multocida, 17E): 12.5 mg/L (≈ 14 µM)
- MIC ([13]; read-out: MIC): 25 mg/L (≈ 27.9 µM)
- MIC ([14]; read-out: MIC): 25 mg/L (≈ 27.9 µM)
- MIC (Mycoplasma gallisepticum; Mycoplasmoides gallisepticum, Mycoplasma gallisepticum, broth-dilution microtiter, read-out: MIC): 0.39 mg/L (≈ 0.436 µM)
- MIC (Mycoplasma synoviae; Mycoplasmopsis synoviae): 0.78 mg/L (≈ 0.871 µM)
- MIC (Mycoplasma hyorhinis; Mycoplasma): 50 mg/L (≈ 55.9 µM)
- MIC (Mycoplasma hyopneumoniae; Mesomycoplasma hyopneumoniae): 12.5 mg/L (≈ 14 µM)
- ED50 [15, 19]: 1.1 mg/kg
- ED50 [15, 20]: 5 mg/kg
- Number of Deaths/Number tested (Pasteurella multocida [16]; 0.5 g/gal equivalent): 7/10
- Number of Deaths/Number tested (Pasteurella multocida [16]; 1.0 g/gal equivalent): 9/10

Compound: CCC1OC(=O)CC(O)C(C)C(OC2OC(C)C(O)C(N(C)C)C2O)C(CCOC)CC(C)C(=O)C=CC(C)=CC1COC1OC(C)C(O)C(OC)C1OC (stereo not drawn) [Compound 30, 20-DH-20-O-Methyldesmycosin]
- MIC ([1]; Staphylococcus aureus, X1.1): 0.5 mg/L (≈ 0.635 µM)
- MIC ([2]; Staphylococcus aureus, V41): 0.5 mg/L (≈ 0.635 µM)
- MIC ([3]; Staphylococcus aureus X400, methicillin-resistant strain, agar dilution, read-out: MIC): 1 mg/L (≈ 1.27 µM)
- MIC ([4]; Staphylococcus aureus, S13E): 0.5 mg/L (≈ 0.635 µM)
- MIC [5, 18]: 0.5 mg/L (≈ 0.635 µM)
- MIC ([6]; Staphylococcus epidermidis, EPI2): 0.5 mg/L (≈ 0.635 µM)
- MIC ([7]; Streptococcus pyogenes, C203): 0.5 mg/L (≈ 0.635 µM)
- MIC ([8]; Streptococcus pneumoniae Park I, agar dilution, read-out: MIC): 4 mg/L (≈ 5.08 µM)
- MIC ([9]; Streptococcus Group D X66, agar dilution, read-out: MIC): 16 mg/L (≈ 20.3 µM)
- MIC (Streptococcus Group 9960; GROUP9960, read-out: MIC): 16 mg/L (≈ 20.3 µM)
- MIC (Staphylococcus aureus): 0.78 mg/L (≈ 0.99 µM)
- MIC (Streptococcus bovis 80; Streptococcus equinus, 80): 12.5 mg/L (≈ 15.9 µM)
- MIC ([12]; Pasteurella multocida 17E, bovine isolate, broth-dilution microtiter, read-out: MIC): 25 mg/L (≈ 31.7 µM)
- MIC ([13]; read-out: MIC): 25 mg/L (≈ 31.7 µM)
- MIC ([14]; read-out: MIC): 25 mg/L (≈ 31.7 µM)
- MIC (Mycoplasma gallisepticum; Mycoplasmoides gallisepticum): 0.39 mg/L (≈ 0.495 µM)
- MIC (Mycoplasma synoviae; Mycoplasmopsis synoviae): 0.39 mg/L (≈ 0.495 µM)
- MIC (Mycoplasma hyorhinis; Mycoplasma): 50 mg/L (≈ 63.5 µM)
- MIC (Mycoplasma hyopneumoniae; Mesomycoplasma hyopneumoniae): 12.5 mg/L (≈ 15.9 µM)
- ED50 [15, 19]: > 6.3 mg/kg
- ED50 [15, 20]: 25 mg/kg
- Number of Deaths/Number Treated (Pasteurella multocida [17]): 10/10

Compound: CCC1OC(=O)CC(O)C(C)C(OC2OC(C)C(O)C(N(C)C)C2O)C(CCOc2cccnc2)CC(C)C(=O)C=CC(C)=CC1COC1OC(C)C(O)C(OC)C1OC (stereo not drawn) [Compound 49, 20-DH-20-O-(Pyridin-3-yl)desmycosin]
- MIC ([1]; Staphylococcus aureus X1.1, agar dilution): 0.5 mg/L (≈ 0.588 µM)
- MIC ([2]; Staphylococcus aureus V41, penicillin-resistant strain, agar dilution): 0.5 mg/L (≈ 0.588 µM)
- MIC ([3]; Staphylococcus aureus X400, methicillin-resistant strain, agar dilution): 0.5 mg/L (≈ 0.588 µM)
- MIC ([4]; Staphylococcus aureus S13E, agar dilution): 0.5 mg/L (≈ 0.588 µM)
- MIC ([5]; Staphylococcus epidermidis EPI1, agar dilution): 0.5 mg/L (≈ 0.588 µM)
- MIC ([6]; Staphylococcus epidermidis EPI2, agar dilution): 0.25 mg/L (≈ 0.294 µM)
- MIC ([7]; Streptococcus pyogenes C203, agar dilution): 2 mg/L (≈ 2.35 µM)
- MIC ([8]; Streptococcus pneumoniae Park I, agar dilution): 2 mg/L (≈ 2.35 µM)
- MIC ([9]; Streptococcus Group D X66, agar dilution): 16 mg/L (≈ 18.8 µM)
- MIC (Streptococcus Group 9960): 16 mg/L (≈ 18.8 µM)
- MIC ([10]; Haemophilus influenzae Holt, ampicillin-sensitive strain, agar dilution): 16 mg/L (≈ 18.8 µM)
- MIC ([11]; Haemophilus influenzae R252, ampicillin-resistant strain, agar dilution): 16 mg/L (≈ 18.8 µM)
- MIC (Staphylococcus aureus; broth-dilution microtiter): 1.56 mg/L (≈ 1.83 µM)
- MIC (Streptococcus bovis 80; Streptococcus bovis 80, broth-dilution microtiter): 25 mg/L (≈ 29.4 µM)
- MIC ([12]; Pasteurella multocida 17E, bovine isolate, broth-dilution microtiter): 25 mg/L (≈ 29.4 µM)
- MIC [13]: 25 mg/L (≈ 29.4 µM)
- MIC [14]: 25 mg/L (≈ 29.4 µM)
- MIC (Mycoplasma gallisepticum; Mycoplasma gallisepticum, broth-dilution microtiter): 0.78 mg/L (≈ 0.917 µM)
- MIC (Mycoplasma synoviae; Mycoplasma synoviae, broth-dilution microtiter): 3.12 mg/L (≈ 3.67 µM)
- MIC (Mycoplasma hyorhinis; Mycoplasma hyorhinis, broth-dilution microtiter): 50 mg/L (≈ 58.8 µM)
- MIC (Mycoplasma hyopneumoniae; Mycoplasma hyopneumoniae, broth-dilution microtiter): 25 mg/L (≈ 29.4 µM)
- Number of Deaths/Number Treated (Pasteurella multocida [17]): 9/10

Reference: patent publication US4443436A, “C-20-Modified macrolide derivatives of the macrolide antibiotics tylosin, desmycosin, macrocin, and lactenocin” (Eli Lilly and Company, priority 1982, dated 1984)
